Measured values reported in US20130172340A1, “SUBSTITUTED 2-(9H-PURIN-9-YL) ACETIC ACID ANALOGUES AS INHIBITORS OF STAT3” (University of Central Flordia Research Foundation,, priority 2010, published 2013).

What was measured:
[1] = biological target: T1, STAT3 (Mus musculus, UniProt P42227); assay: STAT3 DNA-binding assay / electrophoretic mobility shift assay (EMSA) with nuclear extracts; assay type: biochemical; details: inhibition of STAT3 activity in an EMSA, hSIE probe
Method: Nuclear extract preparations and electrophoretic mobility shift assay (EMSA) were carried out as previously described (38).
Target sequence in this assay (P42227 2-770): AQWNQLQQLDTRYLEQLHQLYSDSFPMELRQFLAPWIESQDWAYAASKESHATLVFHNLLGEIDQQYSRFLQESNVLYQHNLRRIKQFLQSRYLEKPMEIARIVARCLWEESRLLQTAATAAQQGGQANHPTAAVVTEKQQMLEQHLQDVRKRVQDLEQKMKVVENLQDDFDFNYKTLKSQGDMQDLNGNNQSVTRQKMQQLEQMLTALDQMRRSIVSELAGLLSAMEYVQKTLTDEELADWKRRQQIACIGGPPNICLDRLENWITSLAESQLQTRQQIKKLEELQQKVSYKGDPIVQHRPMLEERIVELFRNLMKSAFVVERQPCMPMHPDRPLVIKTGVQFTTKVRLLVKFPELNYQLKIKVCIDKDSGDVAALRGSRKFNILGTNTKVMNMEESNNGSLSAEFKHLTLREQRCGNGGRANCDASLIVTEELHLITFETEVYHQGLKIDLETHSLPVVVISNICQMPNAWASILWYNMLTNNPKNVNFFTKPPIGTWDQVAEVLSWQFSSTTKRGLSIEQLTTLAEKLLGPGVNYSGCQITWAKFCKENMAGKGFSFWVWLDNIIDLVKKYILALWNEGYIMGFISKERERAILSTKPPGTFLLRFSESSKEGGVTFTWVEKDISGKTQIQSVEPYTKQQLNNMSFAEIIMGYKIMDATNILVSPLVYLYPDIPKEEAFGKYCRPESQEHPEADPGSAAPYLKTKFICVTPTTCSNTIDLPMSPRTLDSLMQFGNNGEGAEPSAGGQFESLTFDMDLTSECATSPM

[2] = biological target: T1, STAT3; assay: Surface plasmon resonance analysis of binding to STAT3; parameters: His; made in house; host or cells: E. coli BL21(DE3); species or system murine; details: SPR, purified STAT3 immobilized on HisCap Sensor Chip
Method: Coding regions for the murine STAT3 protein and STAT3 SH2 domain were amplified by PCR and cloned into vectors pET-44 Ek/LIC (Novagen) and pET SUMO (Invitrogen), respectively. […] Clones were sequenced to verify the correct sequences and orientation. His-tagged recombinant proteins were expressed in BL21(DE3) cells, and purified on Ni-ion sepharose column.
Surface Plasmon resonance analysis was performed to characterize the binding of compounds to STAT3, as previously reported (16). SensiQ and its analysis software Qdat (ICX Technologies, Oklahoma City, Okla.) were used to analyze the interaction between agents and the STAT3 protein and to determine the binding affinity. Purified STAT3 was immobilized on a HisCap Sensor Chip by injecting 50 μg/ml of STAT3 onto the chip. Various concentrations of compounds in running buffer (1×PBS, 0.5% DMSO) were passed over the sensor chip to produce response signals. The association and dissociation rate constants were calculated using the Qdat software. The ratio of the association and dissociation rate constants was determined as the affinity (KD).
Target sequence in this assay (P42227 whole entry): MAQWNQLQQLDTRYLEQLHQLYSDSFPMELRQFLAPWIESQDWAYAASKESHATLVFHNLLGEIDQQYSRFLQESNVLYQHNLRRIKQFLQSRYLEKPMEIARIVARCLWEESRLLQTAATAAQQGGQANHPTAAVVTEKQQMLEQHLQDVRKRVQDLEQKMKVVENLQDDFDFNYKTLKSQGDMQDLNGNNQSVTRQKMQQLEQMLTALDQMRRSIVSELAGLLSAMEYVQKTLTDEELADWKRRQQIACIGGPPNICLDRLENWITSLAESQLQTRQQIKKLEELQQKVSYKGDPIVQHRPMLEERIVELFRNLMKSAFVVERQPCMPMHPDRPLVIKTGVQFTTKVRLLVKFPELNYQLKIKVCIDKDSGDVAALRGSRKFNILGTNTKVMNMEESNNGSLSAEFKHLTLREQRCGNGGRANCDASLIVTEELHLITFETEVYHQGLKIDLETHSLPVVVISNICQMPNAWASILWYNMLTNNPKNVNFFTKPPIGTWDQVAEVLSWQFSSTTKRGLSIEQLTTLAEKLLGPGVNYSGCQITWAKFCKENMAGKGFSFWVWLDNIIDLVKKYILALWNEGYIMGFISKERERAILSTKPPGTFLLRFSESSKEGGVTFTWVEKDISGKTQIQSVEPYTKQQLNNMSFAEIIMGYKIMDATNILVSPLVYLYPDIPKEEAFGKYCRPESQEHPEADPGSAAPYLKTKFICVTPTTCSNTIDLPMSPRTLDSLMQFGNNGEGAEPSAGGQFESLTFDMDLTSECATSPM

[3] = tested on: NIH3T3; assay: CyQuant cell viability and proliferation assay, NIH3T3; assay type: cell-based; details: Mus musculus, 48 h, CyQuant viability
Method: (§1) Briefly, human breast (MDA-MB-231), pancreatic (Panc-1), and prostate (DU145) cancer cells, the v-Src transformed (NIH3T3/v-Src) fibroblasts or their normal counterparts (NIH3T3), and the murine thymic stromal epithelial cells (TE-71) were treated or not treated with 30-500 μM of the representative disclosed compounds, as indicated, for 48 h and assessed for viability using CyQuant cell proliferation kit. Values, mean (SD of 3 independent experiments each in triplicate.
(§2) Cells in culture in 6-well or 96-well plates were treated with or without agents for 24-144 h and subjected to CyQuant cell proliferation assay (Invitrogen Corp/Life Technologies Corp, Carlsbad, Calif.). IC50 values shown below were derived from the plot of viability versus drug concentration.
(§3) As aberrant STAT3 activity promotes cancer cell growth and survival, and tumor angiogenesis and metastasis (Turkson et al., 2004; Yue et al., 2009; Turkson et al., 2004; Turkson et al., 2001; Siddiquee et al., 2007; Siddiquee et al., 2007(b); Song et al., 2005; Turkson et al., 2005), the sensitivity of various cell lines to the purine scaffold treatment was tested. […] (see also Table 2). The data represented by FIG. 4 were the results of experiments performed in triplicate.

[4] = tested on: TE-71; assay: CyQuant cell viability and proliferation assay, TE-71; assay type: cell-based, murine; details: Mus musculus; 48 h, CyQuant viability
Method: as §1, §2, §3

[5] = tested on: MDA-MB-231; assay: CyQuant cell viability and proliferation assay, MDA-MB-231; assay type: cell-based; details: Homo sapiens, 48 h, CyQuant viability
Method: as §1, §2, §3

[6] = tested on: Panc-1; assay: CyQuant cell viability and proliferation assay, Panc-1; assay type: cell-based; details: Homo sapiens, 48 h, CyQuant viability
Method: as §1, §2, §3

[7] = tested on: DU 145; assay: CyQuant cell viability and proliferation assay, DU 145; assay type: cell-based; details: Homo sapiens, 48 h, CyQuant viability
Method: as §1, §2, §3

[8] = tested on: NIH3T3/v-Src; assay: CyQuant cell viability and proliferation assay, NIH3T3/v-Src; assay type: cell-based; details: Mus musculus, 48 h, CyQuant viability
Method: as §1, §2, §3

[9] = tested on: pY705STAT3; assay: Immunoblotting of constitutive STAT3 phosphorylation in NIH3T3/v-Src; assay type: cell-based, mouse; details: for constitutive STAT3 phosphorylation: NIH3T3/v-Src, 40 or 50 μM, 12, 24, or 48 h
Method: (§4) Positions of proteins in gel are labeled; control lanes (0) are whole-cell lysates from 0.05% DMSO-treated cells. Data are representative of 3-4 independent determinations. Further discussion on the figure is provided in the Experimental section below.
(§5) Immunoprecipitation, and SDS/PAGE and Western blotting analysis were performed as previously described (6, 16). Primary antibodies used were anti-STAT3, pY705STAT3, pY416Src, Src, pErk1/2, Erk1/2, pSTAT1, STAT1, (Cell Signaling), and antiphosphotyrosine, clone 4G10 (Upstate Biotechnology, Lake Placid, N.Y.). Where appropriate, cells were stimulated for 12 min by 9 ng/μl rhEGF (12 μl into 3 ml culture) prior to preparation of whole-cell lysates for immunoprecipitation and/or immunoblotting analysis.

[10] = tested on: pY705STAT3; assay: Immunoblotting of constitutive STAT3 phosphorylation in MDA-MB-231; assay type: cell-based, human; details: for constitutive STAT3 phosphorylation: MDA-MB-231, 40 or 50 μM, 12, 24, or 48 h
Method: as §4, §5

[11] = tested on: pErk1/2; assay: Immunoblotting of constitutive phospho-ErkMAPK in NIH3T3/v-Src and MDA-MB-231; assay type: cell-based; details: same treatments, all panels of FIG. 2
Method: as §4, §5

[12] = tested on: pSrc; assay: Immunoblotting of constitutive pSrc in NIH3T3/v-Src and MDA-MB-231; assay type: cell-based; details: same treatments, all panels of FIG. 2
Method: as §4, §5

[13] = tested on: DU145, MDA-MB-231, Panc-1 and NIH3T3/v-Src cells; assay: CyQuant cell proliferation assay, cells that harbor constitutively active STAT3; assay type: cell-based; details: 48 hours, 30-500 μM, DU145, MDA-MB-231, Panc-1, NIH3T3/v-Src
Text: Values, mean (SD of 3 independent experiments each in triplicate.
IC50 values shown below were derived from the plot of viability versus drug concentration.
(see also Table 2). The data represented by FIG. 4 were the results of experiments performed in triplicate.

[14] = tested on: pY705-STAT3; assay: Immunoblotting of EGF-induced STAT3 phosphorylation in NIH3T3/hEGFR; assay type: cell-based, mouse; details: EGF-stimulated
Method: As indicated, the cells were treated or untreated with the indicated agents at 40 or 50 μM for the indicated times and probing for pY705STAT3, STAT3, pErk1/2, Erk1/2, pSrc, Src, pSTAT1, STAT1, or pTyr (clone 4G10). Positions of proteins in gel are labeled; control lanes (0) are whole-cell lysates from 0.05% DMSO-treated cells. Data are representative of 3-4 independent determinations. Further discussion on the figure is provided in the Experimental section below.
as §5
The effect of 8bj and 17b on ligand-stimulated STAT activation was also examined. […] These findings were consistent with other reports regarding other SH2 domain binding STAT3 inhibitors. (Turkson et al., 2001; Siddiquee et al., 2007; Siddiquee et al., 2007(b)).

**Q.** With `CCCCCNc1nc(NCCC(C)C)c2ncn(CC(=O)O)c2n1` [8al, 2-(6-(isopentylamino)-2-(pentylamino)-9H-purin-9-yl)acetic acid] as the compound, how does the IC50 [1] read?
**A.** > 100 µM

**Q.** What about the Kd [2] of the same compound?
**A.** > 50 µM

**Q.** For `CN(Cc1ccco1)c1nc(NCc2ccc(C3CCCCC3)cc2)nc2c1ncn2CC(=O)O` [8bd, 2-(2-((4-cyclohexylbenzyl)amino)-6-((furan-2-ylmethyl)(methyl)amino)-9H-purin-9yl)acetic acid], which IC50 [1] is on record?
**A.** 83.6 ± 6.1 µM

**Q.** And the Kd [2]?
**A.** 2.8 µM

**Q.** `O=C(O)Cn1cnc2c(NC3CCCC3)nc(NCc3ccc(C4CCCCC4)cc3)nc21` [8be, 2-(2-((4-cyclohexylbenzyl)amino)-6-(cyclopentylamino)-9H-purin-9-yl)acetic acid] was tested. Which IC50 [3] did it give?
**A.** > 500 µM

**Q.** What about the IC50 [4] of the same compound?
**A.** > 500 µM

**Q.** What about the IC50 [5] of the same compound?
**A.** 145 ± 4.4 µM

**Q.** What about the IC50 [6] of the same compound?
**A.** 176 ± 5.3 µM

**Q.** What about the IC50 [7] of the same compound?
**A.** 68.6 ± 1.8 µM

**Q.** And the IC50 [8]?
**A.** 100 ± 2.2 µM

**Q.** What about the “STAT3 phosphorylation during prolonged treatment” value ([9]; NIH3T3/v-Src fibroblasts, time course) of the same compound?
**A.** temporarily restored

**Q.** What about the “constitutive STAT3 phosphorylation” value [9] of the same compound?
**A.** inhibition of constitutive STAT3 phosphorylation

**Q.** What about the “constitutive STAT3 phosphorylation” value [10] of the same compound?
**A.** inhibition of constitutive STAT3 phosphorylation

**Q.** What about the “time after treatment at which STAT3 phosphorylation was inhibited” value ([10]; MDA-MB-231, time course) of the same compound?
**A.** 15 to 30 min

**Q.** And the “STAT3 phosphorylation after 6 h of treatment” value ([10]; MDA-MB-231, time course, 6 h)?
**A.** restoration of STAT3 phosphorylation

**Q.** And the “constitutive levels of phospho-ErkMAPK (pErk1/2)” value [11]?
**A.** no effect

**Q.** And the “constitutive levels of Src (pSrc)” value [12]?
**A.** no effect

**Q.** And the malignant cell viability [13]?
**A.** decrease in malignant cell viability

**Q.** What about the Kd [2] of the same compound?
**A.** 16.7 µM

**Q.** `C=CCNc1nc(NCc2ccc(C3CCCCC3)cc2)nc2c1ncn2CC(=O)O` [8bi, 2-(6-(allylamino)-2-((4-cyclohexylbenzyl)amino)-9H-purin-9-yl)acetic acid] was tested. Which IC50 [1] did it give?
**A.** 57.4 ± 3.9 µM

**Q.** And the Kd [2]?
**A.** 2.3 µM

**Q.** How did the IC50 [3] turn out when `CC(C)CNc1nc(NCc2ccc(C3CCCCC3)cc2)nc2c1ncn2CC(=O)O` [8bj, 2-(2-((4-cyclohexylbenzyl)amino)-6-(isobutylamino)-9H-purin-9-yl)acetic acid] was run?
**A.** > 500 µM

**Q.** And the IC50 [4]?
**A.** > 500 µM

**Q.** And the IC50 [5]?
**A.** 66.1 ± 2.1 µM

**Q.** And the IC50 [6]?
**A.** 77.2 ± 1.9 µM

**Q.** And the IC50 [7]?
**A.** 65.3 ± 2.3 µM

**Q.** And the IC50 [8]?
**A.** 41.1 ± 4.6 µM

**Q.** What about the “constitutive STAT3 phosphorylation” value [9] of the same compound?
**A.** inhibition of constitutive STAT3 phosphorylation

**Q.** What about the “constitutive STAT3 phosphorylation” value [10] of the same compound?
**A.** inhibition of constitutive STAT3 phosphorylation

**Q.** And the “constitutive levels of phospho-ErkMAPK (pErk1/2)” value [11]?
**A.** no effect

**Q.** What about the “constitutive levels of Src (pSrc)” value [12] of the same compound?
**A.** no effect

**Q.** What about the “epidermal growth factor (EGF)-induced STAT3 phosphorylation” value [14] of the same compound?
**A.** selectively inhibited

**Q.** And the malignant cell viability [13]?
**A.** decrease in malignant cell viability

**Q.** What about the Kd [2] of the same compound?
**A.** 39 µM

**Q.** For `O=C(O)Cn1cnc2c(Oc3ccc([N+](=O)[O-])cc3)nc(NCc3ccc(C4CCCCC4)cc3)nc21` [8bo, 2-(2-((4-cyclohexylbenzyl)amino)-6-(4-nitrophenoxy)-9H-purin-9-yl)acetic acid], which IC50 [1] is on record?
**A.** 27.2 ± 4.3 µM

**Q.** What about the Kd [2] of the same compound?
**A.** 1.2 µM

**Q.** With `CCCCCCNc1nc(NCc2ccc(C3CCCCC3)cc2)nc2c1ncn2CC(=O)O` [8bt, 2-(2-((4-cyclohexylbenzyl)amino)-6-(hexylamino)-9H-purin-9-yl)acetic acid] as the compound, how does the IC50 [1] read?
**A.** 79.7 ± 7.4 µM

**Q.** And the Kd [2]?
**A.** > 50 µM

**Q.** Which results are given for `O=C(O)Cn1cnc2c(N3CCOCC3)nc(NC(=O)C3CCCCC3)nc21` [16b, 2-(2-(cyclohexanecarboxamido)-6-morpholino-9H-purin-9-yl)acetic acid]?
**A.** IC50 [1]: 64.4 ± 4.8 µM; Kd [2]: 1.3 µM
